Measured values: PMC5398486, “Cheminformatics-aided discovery of small-molecule Protein-Protein Interaction (PPI) dual inhibitors of Tumor Necrosis Factor (TNF) and Receptor Activator of NF-κB Ligand (RANKL)” (PLoS Computational Biology, 2017)
≈ marks a conversion by molar mass, not a printed value. Read-outs that look alike come from different tables or passages of the source. Marks after values point to notes of the source that are not given here. Values belong to the molecule of their own block, whether it stands above or below them.

What was measured:
[1] = PEG3350 0% v/v; cited from earlier work
[2] = Solubility with PEG3350 as co-solvent; format: physicochemical; settings: PEG3350 2.5% v/v
Description: PEG3350 was used as co-solvent in order to enhance inhibitors solubility and thus eliminate the possibility of aggregates formation. | column: Solubility (μM)

RANKL = molecular target: T1, RANKL (Homo sapiens, UniProt O14788); experiment: Fluorescence-based binding affinity assay, RANKL
T1 sequence (O14788 143-317): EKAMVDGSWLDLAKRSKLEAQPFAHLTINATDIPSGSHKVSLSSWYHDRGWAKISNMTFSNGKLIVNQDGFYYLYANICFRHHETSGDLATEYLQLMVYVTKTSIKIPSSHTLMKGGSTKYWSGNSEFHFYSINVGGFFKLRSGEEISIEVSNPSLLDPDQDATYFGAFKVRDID
Experimental: For use in the binding assays, recombinant TNF and RANKL were expressed and purified as previously described.[84–86] Fluorescence intensity was measure with a Synergy H1 Multi-Mode Reader (BioTek) in 96-well microplates (black) at 25°C. […] During preparation of the solutions the buffer was firstly added to all wells followed by the ligand solution and finally the protein was added. All solutions were mixed by pipetting and equilibrated for 1h at 25°C before measurement. […] Experiments were performed for TNF in 10 mM citrate-phosphate (pH 6.5) and for RANKL in 25 mM Tris–HCl buffer, 100 mM NaCl (pH 7.5); both buffers were supplemented with PEG3350 at the concentrations indicated in the respective figures. Kd values were calculated as mean ± SEM from three independent experiments.
Differences in fluorescence intensity between the protein/ligand complex and free protein (or free ligand) were analysed as previously described in [Papaneophytou et al. (2013) ACS Med Chem Lett. 4: 137-141] (Eq. S6) in order to determine the dissociation constant (Kd) of the various protein-ligand systems.
In Eq. (S6) Fobs is the observed fluorescence intensity; FBG is the fluorescence background signal; MFLF [picture] and PF are the molar fluorescence and concentration of free protein, respectively; FR is the fluorescence ratio of bound protein (or bound ligand in the case of a fluorescence ligand); LT and PT are the total concentrations of ligand and protein, respectively. A detailed analysis of the development of the fluorescence ligand-binding assay is given in [Papaneophytou et al. (2013) ACS Med Chem Lett. 4: 137-141].

L929 cells = test system: L929 cells; parameters: method as in PMID 25160057; settings: compound alone, read-out: L929 LC50; cited from earlier work
[3] = molecular target: the molecule itself; experiment: cross-linking; 100 ng recombinant human TNF or RANKL, with or without inhibitors (30 min, room temperature), cross-linked with 4.8 mM BS3 for 30 min at room temperature; SDS-PAGE and western blot

- solubility [2]: 71 µM (≈ 38.9 µg/mL)
- Kd (RANKL; RANKL 0.5 μM, PEG3350 2.5%, 25 mM Tri-HCl, 100 mM NaCl pH 7.5, read-out: Binding affinity (Kd), RANKL): 14.2 ± 0.68 µM
- Kd (RANKL; RANKL 0.5 μM, PEG3350 5%, 25 mM Tri-HCl, 100 mM NaCl pH 7.5, read-out: Binding affinity (Kd), RANKL): 13.8 ± 0.73 µM
- Kd (RANKL; fluorescence assay, 25°C, 25 mM Tris-HCl, 100 mM NaCl, pH 7.5, 5% PEG3350, read-out: Kd (RANKL complexes)): 13.8 ± 0.7 µM
Molecule: Cc1cc2occ(CN(C)CCN(C)Cc3cn(-c4cccc(C(F)(F)F)c4)c4ccccc34)c(=O)c2cc1C [SPD304, InChI = 1S/C32H32F3N3O2/c1-21-14-28-30(15-22(21)2)40-20-24(31(28)39)18-37(4)13-12-36(3)17-23-19-38(29-11-6-5-10-27(23)29)26-9-7-8-25(16–26)32(33,34)35/h5-11,14–16,19-20H,12–13,17-18H2,1-4H3, reference compound]
- solubility [1]: 10^b μM
- CC50 (L929 cells): 7.5 ± 0.2 µM

B1: recombinant human RANKL (Receptor activator of nuclear factor kappa-B ligand) (ligand, UniProt O14788 140-317, looked up)
chain: IRAEKAMVDGSWLDLAKRSKLEAQPFAHLTINATDIPSGSHKVSLSSWYHDRGWAKISNMTFSNGKLIVNQDGFYYLYANICFRHHETSGDLATEYLQLMVYVTKTSIKIPSSHTLMKGGSTKYWSGNSEFHFYSINVGGFFKLRSGEEISIEVSNPSLLDPDQDATYFGAFKVRDID
notes: source: bought: Peprotech
- stoichiometry N [3]: 3
